Assay results taken from ChEMBL document CHEMBL3436046, “Predictive model for L-type channel inhibition: multichannel block in QT prolongation risk assessment” (J Appl Toxicol, 2012).

Tests used:
[1] = molecular target: T1, Voltage-dependent L-type calcium channel subunit alpha-1C (Cavia porcellus, UniProt O35505); experiment: (§1) Inhibition of L-type calcium channel measured using whole-cell patch clamp in guinea pig ventricular myocytes; assay type: functional, cell-based, Heart, Ventricular myocyte; design: ca sol conc 1.8 mM, temp 20-25 C
[2] = molecular target: T1, Voltage-dependent L-type calcium channel subunit alpha-1C; experiment: as §1; assay type: functional, cell-based, Heart, Ventricular myocyte; design: ca sol conc 1.8 mM, temp 20-22 C
[3] = molecular target: T1, Voltage-dependent L-type calcium channel subunit alpha-1C; experiment: as §1; assay type: functional, cell-based, Heart, Ventricular myocyte; design: ca sol conc 1.8 mM, temp 20-22 C; remark: listed apart in the source
[4] = molecular target: T2, Voltage-dependent L-type calcium channel subunit alpha-1C (Rattus norvegicus, UniProt P22002); experiment: (§2) Inhibition of L-type calcium channel measured using whole-cell patch clamp in rat ventricular myocytes; assay type: functional, cell-based, Heart, Ventricular myocyte; design: ca sol conc 1.8 mM, temp room
[5] = molecular target: T3, Voltage-dependent L-type calcium channel subunit alpha-1C (Homo sapiens, UniProt Q13936); experiment: (§3) Inhibition of L-type calcium channel measured using […] kidney cells heterologically expressing alpha-1C subunit; assay type: functional, cell-based, HEK293; design: ca sol conc 10 mM, temp room
[6] = molecular target: T1, Voltage-dependent L-type calcium channel subunit alpha-1C; experiment: as §1; assay type: functional, cell-based, Heart, Ventricular myocyte; design: ca sol conc 2 mM, temp 35.5-36.5 C
[7] = molecular target: T1, Voltage-dependent L-type calcium channel subunit alpha-1C; experiment: as §1; assay type: functional, cell-based, Heart, Ventricular myocyte; design: ca sol conc 2 mM, temp 22-26 C
[8] = molecular target: T2, Voltage-dependent L-type calcium channel subunit alpha-1C; experiment: as §2; assay type: functional, cell-based, Heart, Ventricular myocyte; design: ca sol conc 1 mM, temp 20-24 C
[9] = molecular target: T2, Voltage-dependent L-type calcium channel subunit alpha-1C; experiment: as §2; assay type: functional, cell-based, Heart, Ventricular myocyte; design: ca sol conc 0 mM, temp room
[10] = molecular target: T2, Voltage-dependent L-type calcium channel subunit alpha-1C; experiment: as §2; assay type: functional, cell-based, Heart, Ventricular myocyte; design: ca sol conc 2 mM, temp 22-23 C
[11] = molecular target: T1, Voltage-dependent L-type calcium channel subunit alpha-1C; experiment: as §1; assay type: functional, cell-based, Heart, Ventricular myocyte; design: ca sol conc 1.8 mM, temp 20-22 C; remark: listed apart in the source
[12] = molecular target: T1, Voltage-dependent L-type calcium channel subunit alpha-1C; experiment: as §1; assay type: functional, cell-based, Heart, Ventricular myocyte; design: ca sol conc 1.8 mM, temp room
[13] = molecular target: T1, Voltage-dependent L-type calcium channel subunit alpha-1C; experiment: as §1; assay type: functional, cell-based, Heart, Ventricular myocyte; design: ca sol conc 1.8 mM, temp 36 C
[14] = molecular target: T1, Voltage-dependent L-type calcium channel subunit alpha-1C; experiment: as §1
[15] = molecular target: T1, Voltage-dependent L-type calcium channel subunit alpha-1C; experiment: as §1; assay type: functional, cell-based, Heart, Ventricular myocyte; design: ca sol conc 1.8 mM, temp 36-37 C
[16] = molecular target: T1, Voltage-dependent L-type calcium channel subunit alpha-1C; experiment: as §1; assay type: functional, cell-based, Heart, Ventricular myocyte; design: ca sol conc 1.8 mM, temp 32-33 C
[17] = molecular target: T3, Voltage-dependent L-type calcium channel subunit alpha-1C; experiment: as §3; assay type: functional, cell-based, HEK293; design: ca sol conc 0 mM, temp room
[18] = molecular target: T2, Voltage-dependent L-type calcium channel subunit alpha-1C; experiment: as §2; assay type: functional, cell-based, Heart, Ventricular myocyte; design: ca sol conc 1.8 mM, temp 21-23 C
[19] = molecular target: T3, Voltage-dependent L-type calcium channel subunit alpha-1C; experiment: (§4) Inhibition of L-type calcium channel measured using 2-electrode voltage-clamp in Xenopus oocyte heterologically expressing alpha-1C subunit; assay type: functional, cell-based; design: ca sol conc 0 mM, temp room
[20] = molecular target: T3, Voltage-dependent L-type calcium channel subunit alpha-1C; experiment: as §4; assay type: functional, cell-based; design: ca sol conc 0 mM, temp room; remark: listed apart in the source
[21] = molecular target: T2, Voltage-dependent L-type calcium channel subunit alpha-1C; experiment: as §2; assay type: functional, cell-based, Heart, Ventricular myocyte; design: ca sol conc 1.8 mM, temp 22-24 C
[22] = molecular target: T1, Voltage-dependent L-type calcium channel subunit alpha-1C; experiment: as §1; assay type: functional, cell-based, Heart, Ventricular myocyte; design: ca sol conc 2.5 mM, temp room
[23] = molecular target: T3, Voltage-dependent L-type calcium channel subunit alpha-1C; experiment: as §4; assay type: functional, cell-based; design: ca sol conc 0 mM, temp room; remark: listed apart in the source
[24] = molecular target: T3, Voltage-dependent L-type calcium channel subunit alpha-1C; experiment: as §3; assay type: functional, cell-based, HEK293; design: ca sol conc 0 mM, temp 20-25 C
[25] = molecular target: T2, Voltage-dependent L-type calcium channel subunit alpha-1C; experiment: as §2; assay type: functional, cell-based, Heart, Ventricular myocyte; design: ca sol conc 1 mM, temp 21-23 C
[26] = molecular target: T2, Voltage-dependent L-type calcium channel subunit alpha-1C; experiment: as §2; assay type: functional, cell-based, Heart, Ventricular myocyte; design: ca sol conc 1 mM, temp 21-23 C; remark: listed apart in the source
[27] = molecular target: T3, Voltage-dependent L-type calcium channel subunit alpha-1C; experiment: as §3; assay type: functional, cell-based, HEK293; design: ca sol conc 0 mM, temp 21-24 C
[28] = molecular target: T3, Voltage-dependent L-type calcium channel subunit alpha-1C; experiment: as §3; assay type: functional, cell-based, HEK293; design: ca sol conc 0 mM, temp 21-24 C; remark: listed apart in the source

T3 sequence (Q13936 whole entry): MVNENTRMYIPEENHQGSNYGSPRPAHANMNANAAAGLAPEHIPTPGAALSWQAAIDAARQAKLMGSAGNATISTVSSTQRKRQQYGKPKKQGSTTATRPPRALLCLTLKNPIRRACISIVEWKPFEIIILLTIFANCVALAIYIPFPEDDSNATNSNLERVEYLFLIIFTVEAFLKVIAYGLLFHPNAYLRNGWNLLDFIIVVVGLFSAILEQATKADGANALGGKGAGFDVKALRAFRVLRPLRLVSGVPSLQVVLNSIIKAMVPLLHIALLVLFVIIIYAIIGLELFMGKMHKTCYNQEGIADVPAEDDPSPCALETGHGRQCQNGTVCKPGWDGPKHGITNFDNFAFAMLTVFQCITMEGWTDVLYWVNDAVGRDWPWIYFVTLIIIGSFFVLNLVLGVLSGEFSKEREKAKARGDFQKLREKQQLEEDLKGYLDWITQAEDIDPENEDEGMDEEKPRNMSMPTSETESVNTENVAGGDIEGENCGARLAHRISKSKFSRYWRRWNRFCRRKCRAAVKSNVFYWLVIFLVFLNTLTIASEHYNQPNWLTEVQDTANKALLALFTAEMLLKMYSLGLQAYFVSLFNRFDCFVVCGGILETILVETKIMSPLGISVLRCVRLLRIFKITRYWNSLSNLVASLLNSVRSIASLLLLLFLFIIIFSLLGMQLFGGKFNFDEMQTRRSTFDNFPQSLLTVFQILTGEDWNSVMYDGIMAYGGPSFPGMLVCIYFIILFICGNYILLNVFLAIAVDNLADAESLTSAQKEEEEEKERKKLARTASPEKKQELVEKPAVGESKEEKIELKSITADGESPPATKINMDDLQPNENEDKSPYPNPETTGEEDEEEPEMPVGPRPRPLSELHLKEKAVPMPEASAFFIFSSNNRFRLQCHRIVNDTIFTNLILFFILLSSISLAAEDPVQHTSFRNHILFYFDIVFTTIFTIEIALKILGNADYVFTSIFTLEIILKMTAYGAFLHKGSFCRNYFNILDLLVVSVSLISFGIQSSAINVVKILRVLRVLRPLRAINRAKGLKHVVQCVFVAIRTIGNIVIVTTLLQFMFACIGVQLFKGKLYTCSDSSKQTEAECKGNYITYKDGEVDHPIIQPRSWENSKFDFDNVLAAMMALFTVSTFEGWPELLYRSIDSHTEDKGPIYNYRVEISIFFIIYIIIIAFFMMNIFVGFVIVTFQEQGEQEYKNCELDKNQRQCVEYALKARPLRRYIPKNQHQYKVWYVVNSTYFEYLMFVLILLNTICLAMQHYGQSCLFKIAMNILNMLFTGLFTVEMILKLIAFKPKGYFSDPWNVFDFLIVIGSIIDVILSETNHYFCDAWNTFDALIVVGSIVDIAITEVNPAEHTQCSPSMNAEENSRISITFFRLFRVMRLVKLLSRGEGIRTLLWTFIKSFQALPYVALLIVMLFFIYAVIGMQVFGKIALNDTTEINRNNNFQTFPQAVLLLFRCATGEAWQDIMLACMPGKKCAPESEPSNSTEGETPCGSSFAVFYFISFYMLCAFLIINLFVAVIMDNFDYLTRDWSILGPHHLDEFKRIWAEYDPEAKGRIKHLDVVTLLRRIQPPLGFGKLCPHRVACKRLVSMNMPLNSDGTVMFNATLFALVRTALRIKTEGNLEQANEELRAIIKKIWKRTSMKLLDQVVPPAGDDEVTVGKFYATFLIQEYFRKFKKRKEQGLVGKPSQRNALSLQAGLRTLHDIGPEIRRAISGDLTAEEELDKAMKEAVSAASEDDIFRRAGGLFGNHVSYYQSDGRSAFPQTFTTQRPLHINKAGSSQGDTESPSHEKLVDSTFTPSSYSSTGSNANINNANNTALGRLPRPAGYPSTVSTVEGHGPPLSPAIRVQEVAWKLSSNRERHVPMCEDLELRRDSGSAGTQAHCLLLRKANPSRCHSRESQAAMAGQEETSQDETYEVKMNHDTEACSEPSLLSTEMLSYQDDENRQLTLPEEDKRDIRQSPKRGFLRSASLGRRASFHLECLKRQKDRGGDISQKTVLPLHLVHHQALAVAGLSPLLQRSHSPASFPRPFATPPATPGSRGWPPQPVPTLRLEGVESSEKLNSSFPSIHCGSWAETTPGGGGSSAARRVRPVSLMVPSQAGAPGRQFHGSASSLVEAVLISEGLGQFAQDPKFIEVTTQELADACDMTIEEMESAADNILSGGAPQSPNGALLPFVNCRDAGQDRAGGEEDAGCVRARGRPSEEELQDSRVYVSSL
T2 sequence (P22002 whole entry): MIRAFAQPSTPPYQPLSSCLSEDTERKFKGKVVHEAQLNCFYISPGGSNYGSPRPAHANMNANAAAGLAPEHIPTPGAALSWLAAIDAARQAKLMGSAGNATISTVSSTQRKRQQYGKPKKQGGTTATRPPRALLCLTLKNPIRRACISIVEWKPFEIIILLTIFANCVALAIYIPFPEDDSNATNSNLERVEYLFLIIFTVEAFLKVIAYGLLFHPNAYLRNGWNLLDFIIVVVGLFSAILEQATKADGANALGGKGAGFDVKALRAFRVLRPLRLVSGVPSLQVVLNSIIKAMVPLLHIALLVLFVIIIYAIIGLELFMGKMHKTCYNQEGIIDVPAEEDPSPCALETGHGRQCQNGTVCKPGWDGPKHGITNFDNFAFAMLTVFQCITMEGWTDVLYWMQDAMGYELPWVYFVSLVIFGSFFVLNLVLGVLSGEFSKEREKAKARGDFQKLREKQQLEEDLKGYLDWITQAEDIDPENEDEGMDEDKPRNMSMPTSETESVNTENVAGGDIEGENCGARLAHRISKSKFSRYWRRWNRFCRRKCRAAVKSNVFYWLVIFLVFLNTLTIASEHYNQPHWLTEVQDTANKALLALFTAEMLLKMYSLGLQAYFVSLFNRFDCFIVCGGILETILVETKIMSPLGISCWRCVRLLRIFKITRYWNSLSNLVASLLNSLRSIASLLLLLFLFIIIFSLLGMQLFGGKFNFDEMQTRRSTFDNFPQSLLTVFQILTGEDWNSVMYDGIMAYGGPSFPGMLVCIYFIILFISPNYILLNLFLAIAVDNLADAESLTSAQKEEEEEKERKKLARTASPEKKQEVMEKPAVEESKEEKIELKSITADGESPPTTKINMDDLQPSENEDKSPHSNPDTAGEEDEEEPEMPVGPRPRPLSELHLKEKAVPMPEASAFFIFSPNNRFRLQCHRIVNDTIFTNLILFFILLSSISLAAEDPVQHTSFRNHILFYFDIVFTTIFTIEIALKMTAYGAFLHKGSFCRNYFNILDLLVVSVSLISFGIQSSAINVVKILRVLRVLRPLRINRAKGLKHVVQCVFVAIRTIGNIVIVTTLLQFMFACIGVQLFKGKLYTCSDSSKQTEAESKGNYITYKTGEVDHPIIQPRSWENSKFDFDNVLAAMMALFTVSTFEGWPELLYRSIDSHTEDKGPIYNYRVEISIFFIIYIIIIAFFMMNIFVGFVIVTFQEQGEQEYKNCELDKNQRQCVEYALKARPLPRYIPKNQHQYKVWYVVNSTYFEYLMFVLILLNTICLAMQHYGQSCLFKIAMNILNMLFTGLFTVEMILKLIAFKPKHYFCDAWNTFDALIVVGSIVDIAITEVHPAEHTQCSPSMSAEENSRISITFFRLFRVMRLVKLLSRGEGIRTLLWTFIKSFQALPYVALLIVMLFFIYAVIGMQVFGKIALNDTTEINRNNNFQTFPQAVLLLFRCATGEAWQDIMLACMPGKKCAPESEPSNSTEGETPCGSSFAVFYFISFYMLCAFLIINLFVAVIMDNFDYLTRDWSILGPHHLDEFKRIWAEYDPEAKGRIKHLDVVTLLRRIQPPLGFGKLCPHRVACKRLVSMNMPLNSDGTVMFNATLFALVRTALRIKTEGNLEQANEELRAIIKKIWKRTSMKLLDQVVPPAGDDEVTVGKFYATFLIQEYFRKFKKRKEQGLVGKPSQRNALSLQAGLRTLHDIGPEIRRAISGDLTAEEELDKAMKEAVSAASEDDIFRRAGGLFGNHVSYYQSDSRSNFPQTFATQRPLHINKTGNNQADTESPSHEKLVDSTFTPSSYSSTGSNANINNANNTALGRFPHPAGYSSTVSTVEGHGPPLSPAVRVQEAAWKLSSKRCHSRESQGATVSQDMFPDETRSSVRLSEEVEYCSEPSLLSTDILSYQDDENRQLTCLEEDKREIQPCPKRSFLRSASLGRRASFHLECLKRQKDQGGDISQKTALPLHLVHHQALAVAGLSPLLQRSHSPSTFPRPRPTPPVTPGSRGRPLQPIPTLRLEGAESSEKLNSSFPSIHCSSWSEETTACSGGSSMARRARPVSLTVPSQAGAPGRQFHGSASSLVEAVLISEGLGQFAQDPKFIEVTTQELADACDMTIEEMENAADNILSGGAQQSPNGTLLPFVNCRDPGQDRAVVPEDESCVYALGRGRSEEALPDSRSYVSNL

Compound `Fc1ccc(C(OCCN2CCN(CCCc3ccccc3)CC2)c2ccc(F)cc2)cc1` [VANOXERINE] has an IC50 [1] of 0.32 µM.

Work on `CC(C)COCC(CN(Cc1ccccc1)c1ccccc1)N1CCCC1` (stereo unspecified) [BEPRIDIL] yielded an IC50 [2] of 0.5 µM and an IC50 [3] of 2.6 µM.

`CCCC[N+]1(CCCC(=O)c2ccc(F)cc2)CCC(O)(c2ccc(Cl)cc2)CC1` (stereo unspecified) showed an IC50 [4] of 0.17 µM.

`O=C1NC(=O)C(c2ccccc2)(c2ccccc2)N1` [PHENYTOIN] showed an IC50 [5] of 125 µM.

Compound `CN1CCCC(n2nc(Cc3ccc(Cl)cc3)c3ccccc3c2=O)CC1` (stereo unspecified) [AZELASTINE] has an IC50 [6] of 20.2 µM.

Work on `CC(N)CCCC(C)(C)O` (stereo unspecified) [HEPTAMINOL] yielded an IC50 [7] of 15.3 µM.

`CN(C)CCCN1c2ccccc2CCc2ccc(Cl)cc21` [CLOMIPRAMINE] showed an IC50 [8] of 11.6 µM.

For `O=C(O)Cc1ccccc1Nc1c(Cl)cccc1Cl` [DICLOFENAC], the IC50 [9] was 12.9 µM.

Compound `CCN(CC)CCCC(C)Nc1c2ccc(Cl)cc2nc2ccc(OC)cc12` (stereo unspecified) [QUINACRINE] has an IC50 [10] of 5.2 µM.

Work on `COc1cc(N)c(Cl)cc1C(=O)NC1CCN(CCCOc2ccc(F)cc2)CC1OC` (stereo unspecified) [CISAPRIDE] yielded an IC50 [11] of 46.9 µM and an IC50 [2] of 16 µM.

`Cc1ccc(O)c([C@H](CCN(C(C)C)C(C)C)c2ccccc2)c1` [TOLTERODINE] was tested, and the IC50 [12] was 0.143 µM.

`CCN(CC)CC#CCOC(=O)C(O)(c1ccccc1)C1CCCCC1` (stereo unspecified) [OXYBUTYNIN] was tested, and the IC50 [13] was 16.1 µM.

Compound `CCOC(=O)C1=C(COCCN)NC(C)=C(C(=O)OC)C1c1ccccc1Cl` (stereo unspecified) [AMLODIPINE] has an IC50 [14] of 0.57 µM.

With `c1ccc(C2(c3ccccc3)CC2C2=NCCN2)cc1` (stereo unspecified) [CIFENLINE] the IC50 [12] was 14 µM, the IC50 [15] was 30 µM and the IC50 [16] was 14.4 µM.

For `CC[C@H](CO)Nc1nc(NCc2ccccc2)c2ncn(C(C)C)c2n1` [SELICICLIB], the IC50 [17] was 23.4 µM.

`Cc1c(C)c2c(c(C)c1O)CCC(C)(COc1ccc(CC3SC(=O)NC3=O)cc1)O2` (stereo unspecified) [TROGLITAZONE] showed an IC50 [18] of 9.5 µM.

`COCCOC(=O)C1=C(C)NC(C)=C(C(=O)OC/C=C/c2ccccc2)C1c1cccc([N+](=O)[O-])c1` (stereo unspecified) [CILNIDIPINE] gave an IC50 [19] of 5.3 µM and an IC50 [20] of 12.7 µM.

Work on `O=c1c(-c2ccc(O)cc2)coc2cc(O)cc(O)c12` [GENISTEIN] yielded an IC50 [21] of 11 µM and an IC50 [22] of 20 µM.

`COC(=O)C1=C(C)NC(C)=C(C(=O)O[C@H]2CCN(Cc3ccccc3)C2)[C@H]1c1cccc([N+](=O)[O-])c1` [BARNIDIPINE] gave an IC50 [19] of 3.1 µM and an IC50 [23] of 1.2 µM.

Compound `COc1ccc(CCN(C)CCCC(C#N)(c2cc(OC)c(OC)c(OC)c2)C(C)C)cc1OC` (stereo unspecified) [GALLOPAMIL] has an IC50 [24] of 0.017 µM.

`COc1ccc(CCN(C)CCCOc2ccc(S(=O)(=O)c3c(C(C)C)cn4ccccc34)cc2)cc1OC` [FANTOFARONE] showed an IC50 [25] of 9 µM and an IC50 [26] of 0.022 µM.

`C[C@]12CC[C@H]3[C@@H](CCC4=CC(=O)CC[C@@]43C)[C@@H]1CC[C@@H]2O` [TESTOSTERONE] showed an IC50 [27] of 0.034 µM and an IC50 [28] of 0.0384 µM.
